Reference: patent US20040091479A1, “T-cell epitope of the papillomavirus l1 and e7 protein and use thereof in diagnostics and therapy” (priority 2000, published 2004)

Columns and labels:
[1] = tested on: T cell line generated with HeLa CD80/HLA-A2 transfectants (H7.1-A2); assay: IFN-γ ELISpot of H7.1-A2-specific T cell line against peptide-loaded autologous PBMC; type: cell-based, human; details: H7.1-A2-induced T cell line, FIG. 17 top
[2] = tested on: autologous peptide-loaded BLCL; assay: Cytotoxicity test (chromium release assay) of HPV18 E786-94-specific T cells; type: cell-based, human; details: effector to target ratio of 30:1, FIG. 17 bottom
Experimental: The predicted peptides were synthesized using standard methods (F moc method). […] For this, 1×10^5 PBMC derived from healthy, HLA-A2-positive donors were sown, in 100 μl of medium (RPMI 1640, 10% heat-inactivated AB plasma), in each well of a 96-well plate. 20 μg of peptide/ml were added to the culture medium. The cells were incubated at 37° C. and restimulated once per week with irradiated peptide-loaded autologous PBMC. The stimulator PBMC were incubated for 4 hours in medium containing 20 μg of peptide/ml. After the irradiation, they were diluted down to 1×10^4/100 μl with medium and added to the peptide-stimulated PBMC. For this, half the medium was aspirated from each well and 100 μl of the stimulator PBMC suspension were added. 10 U of IL-2/ml and 10 U of IL-7/ml were added from the 3rd stimulation onwards. From the 5th stimulation onwards, restimulation was carried out in the same manner using peptide-loaded autologous B lymphoblast cell lines (BLCL).
The cytotoxicity of HPV18 E786-94-specific T cells was determined in a chromium release assay. Autologous BLCL were used as the target cells. In each case, 5×10^5 cells were taken up in 100 μl of medium (RPMI 1640, 10% FCS) and treated with 20 μl of ^51chromium (NEN). For loading the BLCL with peptide, 50 μg of the corresponding peptide were added/ml. After that, the cells were incubated at room temperature for 2 hours while being carefully resuspended every 20-30 min. The cells were then washed 3 times with 5 ml of medium. For the sedimenting, the cells were in each case centrifuged at 1500 rpm for 5 min and then carefully resuspended. […]
The assay samples were incubated for 4 hours at 37° C., 98% atmospheric humidity and 5% CO2. […] On the following day, 150 μl of Microscint 40 scintillation fluid (Canberra-Packard, Deieich) were added and the numbers of distintegrations per minute in the individual assay samples were measured in the scintillation counter (Topcount, Canberra-Packard, Dreieich).
The specific lysis was calculated using the following formula: […]

[3] = tested on: T cell lines directed against HPV18 E7; assay: ELISpot of T cell lines induced with HPV18 E7-loaded dendritic cells; type: cell-based, human; details: E7 protein-induced and E7 peptide pool-induced T cell lines; epitope-loaded DC; FIG. 18 top
Experimental: 1×10^4 stimulator cells (K-A2 cells, that is K-562 cells (ATCC CCL-243) were transfected with an HLA A2 expression vector, PBMC or dendritic cells) were sown, in 60 μl of medium (RPMI 1640, 0.4% human albumin), in one well of a 96-well round-bottomed cell culture plate and loaded overnight with 50 μg of peptide/ml. On the following day, 5×10^4 T cells, in 60 μl of medium (containing 10 U each of IL-2 and IL-7/ml), were added to each well and the plate was incubated for 4 hours. A Millipore nitrocellulose HA plate was coated overnight, at 4° C., with the anti-human IFN-γ monoclonal antibody 1-Dlk (10 μg/ml in PBS, 60 μl/well, Hölzel Diagnostika, Cologne). On the following day, the plate was washed 3 times for in each case 5 min with 150 μl of sterile PBS per well and then blocked with medium for 1 hour at 37° C. The blocking medium was removed and the cells were transferred from the round-bottomed cell culture plate to the filter plate and then incubated for a further 20 to 22 hours. After that, the cells and the medium were removed and the filter plate was washed 6 times for 2 min with PBS/Tween 20 (0.05%). The antibody Ab-7-B6-1-biotin was then added (2 μg/ml in PBS/BSA, 60 μl/well, Hölzel Diagnostika) and the plate was incubated at 4° C. overnight. […] The spots were counted using a ZEISS-VISION (Halbergmoos) ELISpot readout system. […]

[4] = tested on: TIL from an HPV18- and HLA-A2-positive patient; assay: ELISpot of tumor-infiltrating lymphocytes with peptide-loaded K-A2 cells; type: cell-based, human; details: peptide-loaded K-A2 stimulators; FIG. 18 bottom
human T cells = assay: Summary of examples 3 to 18: epitopes recognized by human T cells; type: cell-based; details: Table 4, HPV18 peptides, species human; MHC restriction

Sequence: FQQLFLNTL [HPV18 E786-94, HPV18 E7 86-94]
- IFN-γ ELISpot reaction [1]: specific reaction
- specific lysis [2]: approx. 20%
- epitope-specific T cells in ELISpot assay [3]: detected in both T cell lines
- ELISpot reaction of TIL populations [4]: marked reaction
- Haplotype (human T cells): HLA-A2
